Article PMC12010006, “Subnanomolar MAS-related G protein-coupled receptor-X2/B2 antagonists with efficacy in human mast cells and disease models” (Signal Transduction and Targeted Therapy, 2025)

Columns and labels:
Assay type in all cases: cell-based
MRGPRX2 [1] = target: T1, MRGPRX2 (Homo sapiens, UniProt Q96LB1); assay: β-arrestin assay (agonist mode), β-arrestin CHO cells recombinantly expressing MRGPRX2; conditions: for EC50: agonist test, read-out: β-Arrestin assay EC50 ± SEM; for β-Arrestin assay % activation: normalized to CST-14 (EC80 5,000 nM)
T1 sequence (Q96LB1 1-330): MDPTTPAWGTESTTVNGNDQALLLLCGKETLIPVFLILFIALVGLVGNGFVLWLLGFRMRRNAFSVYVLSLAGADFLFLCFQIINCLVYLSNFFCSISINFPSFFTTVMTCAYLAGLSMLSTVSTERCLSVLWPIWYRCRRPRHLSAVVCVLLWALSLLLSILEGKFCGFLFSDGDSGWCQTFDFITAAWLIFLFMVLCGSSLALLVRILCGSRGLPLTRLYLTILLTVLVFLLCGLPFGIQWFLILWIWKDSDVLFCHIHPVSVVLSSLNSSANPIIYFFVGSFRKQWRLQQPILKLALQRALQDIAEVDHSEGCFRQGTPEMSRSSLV
Text: Eurofins DiscoverX (Fremont, CA, USA) provided engineered Chinese hamster ovary (CHO) cells stably expressing β-arrestin-2 fused to a large β-galactosidase fragment (enzyme acceptor, EA). These CHO-K1-β-arrestin-2 cells were commercially available (93-0164). CHO-K1-β-arrestin-2 cells that additionally expressed MRGPRX1, -2, or -4 fused to the fragment ProLink™ (PK) were also purchased from the same company (93-0919C2, 93-0309C2, and 3-0541C2A, respectively). CHO cells expressing MRGPRX3 were generated as previously […].[31] The cells were grown in F-12 Ham Nutrient Mixture (Life Technologies) supplemented with 10% FBS, 100 U/mL of penicillin, 100 µg/mL of streptomycin (PAN-Biotech), 300 μg/mL of hygromycin B (PAN-Biotech), and 800 μg/mL of gentamicin (PAN-Biotech) at 37 °C and 5% CO2.).
The assays were carried out as previously described.[22] […] After 30 min of incubation at 37 °C and 5% CO2, Cortistatin-14 (CST-14, Bioscience, Bristol, United Kingdom) or another MRGPRX2 agonist that served as a standard agonist was added, and the mixture was incubated for 90 min at 37 °C and 5% CO2. Next, a detection reagent (50 µL, DiscoverX) was added, and the mixture was incubated at room temperature in the dark for 60 min. Chemiluminescence was measured on a Mithras LB 940 plate reader (Berthold Technologies, Bad Wildbad, Germany). The results represent means ± SEM of three to five independent experiments, each in duplicates.
^d β-Arrestin CHO cells recombinantly expressing MRGPRX2
^f Percentage of activation of normalized to CST-14 (EC80 5,000 nM)

MRGPRX2 [2] = target: T1, MRGPRX2; assay: Ca2+ mobilization assay, LN229 cells overexpressing MRGPRX2; parameters: expressed in transfected cells; host or cells: LN229 human glioblastoma cells; plasmid pLXSN-MRGPRX2 (Addgene #213960); conditions: for Ki: versus CST-14 (EC80 800 nM, EC50 452 nM), Cheng-Prusoff, read-out: Ca2+ assay Ki ± SEM; for MRGPRX2 antagonistic potency in Ca2+ assay, in words: versus CST-14
Procedure: Glioblastoma LN229-MRGPRX2 stably expressing MRGPRX2 (produced by retroviral transfection) were seeded into black sterile 96-well microplates at a density of 5 × 10^4 cells/well in 200 µL of DMEM/F12-Nut Mix medium, supplemented with 10% FCS, 100 U/mL of penicillin 100 µg/mL of streptomycin, and 200 µg/mL of G418 and incubated for 18–22 h.
The next day Fluo-4 AM Solution (1 mM) (Thermo Fisher Scientific) was prepared and used to prepare cell loading dye solution consisting of 4970 µL of Hank’s Buffered Saline Solution (HBSS) buffer, 15 µL of 20% Pluronic-F and 15 µL of 1 mM Fluo-4 AM. Next, the cell medium was removed and exchanged for 40 µL of dye solution per well (final concentration of Fluo-4 AM: 3 µM). The cell plate was incubated for 60 min in the dark at room temperature, then the dye solution was removed and replaced by 189 µL HBSS. Subsequently, 1 µL of antagonist diluted in DMSO was added and incubated for 30 min at room temperature and in the dark (final DMSO concentration 0.5%, v/v). CST-14 or another agonist prepared in HBSS as well as carbachol (final concentration 100 µM) were pipetted (10 µL) using a FlexStation® 3 Multi-Mode Microplate Reader. For the determination of baseline fluorescence, HBSS buffer containing solvent of the investigated compound was used. Fluorescence was measured for 120 intervals of 1 s (number of flashes: 10) at a wavelength of 525 nm (excitation 485 nm) using the SoftMax® Pro5.1 Microplate Data Acquisition & Analysis Software. Three independent experiments were performed in duplicates. Measurements are provided in relative fluorescence units and normalized to the maximal effect of CST-14.

MRGPRX2 [3] = target: T1, MRGPRX2; assay: β-arrestin recruitment assay (antagonist mode), β-arrestin-CHO cells recombinantly expressing MRGPRX2; parameters: expressed in transfected cells; conditions: for Ki: versus CST-14 (EC80 1,000 nM, EC50 483 nM), Cheng-Prusoff, read-out: β-Arrestin assay Ki ± SEM

Compound | EC50 (MRGPRX2 [1]) | β-Arrestin assay % activation (MRGPRX2 [1]) | Ki (MRGPRX2 [2]) | Ki (MRGPRX2 [3]) | MRGPRX2 antagonistic potency in Ca2+ assay, in words (MRGPRX2 [2]) | also measured
CCCc1cc(=O)n2c(nc3ccccc32)[nH]1 [Compound 6, 2-Propylbenzo[4,5]imidazo[1,2-a]pyrimidin-4(1H)-one] | > 10 µM | 1% | 4.73 µM | 4.79 µM | – | –
Cc1cc(=O)n2c(n1)oc1ccccc12 [Compound 22] | > 10 µM | 0% | – | – | inactive | –
Cc1cc(=O)n2c(n1)sc1ccccc12 [Compound 23] | > 10 µM | -1% | – | – | inactive | –
CC(C)c1cc(=S)n2c(nc3ccccc32)[nH]1 [Compound 18] | > 10 µM | -1% | 0.00142 µM | 0.0482 ± 0.00108 µM | – | fold increase in potency compared to 7 (MRGPRX2 [2]): ~3000 fold
CCc1c(C(C)C)[nH]c2nc3ccc(C)cc3n2c1=O [Compound 28] | > 10 µM | -3% | 0.000322 µM | 0.0478 ± 0.00977 µM | subnanomolar potencies | fold improved potency compared to 27 (MRGPRX2 [2]): 20 fold
CCc1c(C)n(C)c2nc3ccccc3n2c1=O [Compound 20] | > 10 µM | 1% | – | – | not tolerated | –
CCc1c(C(C)C)[nH]c2nc3cc(Br)c(Br)cc3n2c1=O [Compound 26] | > 10 µM | -1% | 0.0133 µM | 0.289 ± 0.119 µM | – | –
CC(C)c1cc(=O)n2c(nc3ccccc32)[nH]1 [Compound 7] | > 10 µM | 0% | 4.26 µM | 1.05 µM | – | –
CCc1c(C)[nH]c2nc3ccccc3n2c1=O [Compound 2] | > 10 µM | -2% | 0.238 µM | 1.05 µM | – | –
CCc1c(C(C)C)[nH]c2nc3ccccc3n2c1=O [Compound 10] | > 10 µM | -1% | 0.000895 µM | 0.0944 ± 0.0638 µM | subnanomolar potencies | fold increase in potency compared to hit compound 1 (MRGPRX2 [2]): 275 fold
CN(C)CCCN1c2ccccc2CCc2ccc(Cl)cc21 [clomipramine, reference compound] | – | – | – | – | – | EC80 of agonist, β-arrestin assay (MRGPRX2 [3]): 13 µM
CCc1c(-c2ccccc2)[nH]c2nc3ccccc3n2c1=O [Compound 15] | > 10 µM | 0% | 0.364 µM | 0.175 ± 0.0495 µM | – | –
O=c1cc[nH]c2nc3ccccc3n12 [Compound 5, benzo[4,5]imidazo[1,2-α]pyrimidin-4(1H)-one] | > 10 µM | -1% | – | – | – | –
CSc1cc(C(C)C)nc2nc3ccccc3n12 [Compound 19] | > 10 µM | -1% | – | – | completely inactive | –
Cc1cc(=O)n2c(nc3ccccc32)[nH]1 [Compound 4] | > 10 µM | 0% | – | – | – | –
CCc1c(C(C)(C)C)[nH]c2nc3ccccc3n2c1=O [Compound 13] | > 10 µM | -1% | 0.00844 µM | 0.113 ± 0.0423 µM | – | –
CN(C)[C@@H]1CCN(c2cc(-c3ccccc3)nc3ccnn23)C1 [(R)-ZINC-3573, reference compound] | – | – | – | – | – | EC80 of agonist, β-arrestin assay (MRGPRX2 [3]): 2 µM; EC50 (MRGPRX2 [3]; without antagonist, read-out: EC50 of (R)-ZINC-3573, shift assay): 2.02 ± 0.333 µM
CCc1c(-c2cccs2)[nH]c2nc3ccccc3n2c1=O [Compound 16] | > 10 µM | -2% | – | – | – | –
CC(C)c1cc(=O)n2c3ccccc3n(C)c2n1 [Compound 21] | > 10 µM | -1% | – | – | not tolerated | –
Cc1cc(=S)n2c(nc3ccccc32)[nH]1 [Compound 17] | > 10 µM | -3% | – | – | – | –
CCc1c(C(C)C)[nH]c2nc3c(C)cccc3n2c1=O [Compound 31] | > 10 µM | 1% | – | – | abolished antagonistic activity | –
